Source: the NIST ThermoML archive (doi:10.1016/j.jct.2018.01.014)
Several values for one entry are separate records, joined by “and”; a condition that tells them apart may be missing. Equal values may be shown once. Numbers after ± are expanded uncertainties.

Settings: Liquid, Transpiration method

CN1CCC[C@H]1c1cccnc1 [(-)-3-(N-methylpyrrolidino)pyridine]
Settings | vapor or sublimation pressure
288.7 K | 0.002398 ± 0.00015 kPa
293.8 K | 0.003508 ± 0.00023 kPa
298.5 K | 0.005519 ± 0.00039 kPa
303.3 K | 0.008212 ± 0.00056 kPa
308.2 K | 0.01232 ± 0.00082 kPa and 0.01187 ± 0.00079 kPa
313.1 K | 0.01822 ± 0.0012 kPa
318.1 K | 0.02642 ± 0.0017 kPa
323 K | 0.03648 ± 0.0023 kPa
327.9 K | 0.05164 ± 0.0033 kPa
333.2 K | 0.07337 ± 0.0046 kPa
335.7 K | 0.08301 ± 0.0052 kPa
338.2 K | 0.1012 ± 0.0063 kPa
340.7 K | 0.1124 ± 0.0071 kPa
343.1 K | 0.1387 ± 0.0088 kPa
345.6 K | 0.1639 ± 0.01 kPa
348.2 K | 0.2061 ± 0.013 kPa
350.6 K | 0.222 ± 0.014 kPa
353.2 K | 0.2733 ± 0.017 kPa
358.1 K | 0.3726 ± 0.023 kPa
363.2 K | 0.5077 ± 0.032 kPa
368.1 K | 0.6692 ± 0.042 kPa
373.1 K | 0.8635 ± 0.053 kPa
